Test results taken from patent US5128420A, “Method of making hydroxamic acid polymers from primary amide polymers” (Massachusetts Institute of Technology, priority 1988, dated 1992).

System: urease forming bacteria, Proteus
Test: Urease inhibition activity (ammonia production by urease forming bacteria in artificial urine)
Assay type: cell-based
Experimental: PHA was tested for urease inhibition activity using the procedure of Griffith et al in Investigative Urology 13(5),346-350(1976). Briefly, one square centimeter of agar slab containing a layer of urease forming bacteria, Proteus, was dissolved in 25 ml of artificial urine made of 25 g urea dissolved in one liter water. 30 mg polymer was added per ml urine and the mixture incubated overnight at 37° C. The production of ammonia, indicative of urease activity, was measured using an amino acid analyzer.
*% activity was estimated relative to AHA from the ratio between the
decrease in ammonia number of the polymer and AHA.

In the case of `CC(=O)NO` [AHA, acetyl hydroxamic acid], the Ammonia (30 mg per ml artificial urine, overnight at 37° C., amino acid analyzer) is reported as 1165-1331 and the “% Activity” value (estimated relative to AHA from the ratio between the decrease in ammonia number of the polymer and AHA) is reported as 100%.
